Measurements from EP0115820A2, “Cephalosporin derivatives and process for their preparation” (Kaken Pharmaceutical Co., Ltd., priority 1983, dated 1984).
Converted amounts (≈) assume the structure as drawn. Like-named read-outs stand apart in the source and are kept apart here.

Key:
Assay in all cases: Minimum inhibitory concentration (MIC)
Type in all cases: cell-based
[1] = system: Staphylococcus aureus 209 P JC-1
Description: (§1) The cephalosporin derivatives of the present invention are novel substances, and the antimicrobial activities of their sodium salts are shown by the minimum inhibitory concentrations (MIC, µg/ml) in Table 1, as compared with a typical known cephalosporin compound.

[2] = system: Serratia marcescens No. 16-2
Description: as §1

[3] = system: Escherichia coli NIHJ JC-2
Description: as §1

Proteus vulgaris GN-76 = system: Proteus vulgaris GN-76
Description: as §1

[4] = system: Pseudomonas aeruginosa Y-1
Description: as §1

[5] = system: Klebsiella pneumoniae No. 42
Description: as §1

[6] = system: Pseudomonas aeruginosa E-2
Description: as §1

[7] = system: Pseudomonas aeruginosa K-13
Description: as §1

[8] = 209PJC1, Staphylococcus aureus 209 P JC-1, bacterial suspension 10^6 cells/ml, sodium salts tested, read-out: Minimum inhibitory concentration
[9] = NO.162, Serratia marcescens No. 16-2, bacterial suspension 10^6 cells/ml, sodium salts tested, read-out: Minimum inhibitory concentration
[10] = NIHJJC2, Escherichia coli NIHJ JC-2, bacterial suspension 10^6 cells/ml, sodium salts tested, read-out: Minimum inhibitory concentration
[11] = GN76, Proteus vulgaris GN-76, bacterial suspension 10^6 cells/ml, sodium salts tested, read-out: Minimum inhibitory concentration
[12] = Y1, Pseudomonas aeruginosa Y-1, bacterial suspension 10^6 cells/ml, sodium salts tested, read-out: Minimum inhibitory concentration
[13] = Klebsiella pneumoniae No. 42, bacterial suspension 10^6 cells/ml, sodium salts tested, read-out: Minimum inhibitory concentration
[14] = E2, Pseudomonas aeruginosa E-2, bacterial suspension 10^6 cells/ml, sodium salts tested, read-out: Minimum inhibitory concentration
[15] = K13, Pseudomonas aeruginosa K-13, bacterial suspension 10^6 cells/ml, sodium salts tested, read-out: Minimum inhibitory concentration

Q: Which results are given for `Cn1nnnc1SCC1=C(C(=O)O)N2C(=O)[C@@H](NC(=O)C(NC(=O)c3ccc(O)c(O)c3)c3csc(N)n3)[C@H]2SC1` (mixture of isomers) [Example 2, 7β-[DL-2-(3,4-dihydroxybenzoylamino)-2-(2-aminothiazol-4-yl)acetamido]-3-(1-methyl-1H-tetrazol-5-yl-thiomethyl)-3-cephem-4-carboxylic acid]?
A: MIC [1, 8]: 0.39 mg/L; MIC [2, 9]: 100 mg/L; MIC [3, 10]: 0.78 mg/L; MIC (Proteus vulgaris GN-76; [11]): 6.25 mg/L; MIC [4, 12]: 0.2 mg/L; MIC [5, 13]: 0.2 mg/L; MIC [6, 14]: 0.39 mg/L; MIC [7, 15]: 0.1 mg/L

Q: For `CC(=O)OCC1=C(C(=O)O)N2C(=O)[C@@H](NC(=O)C(NC(=O)c3ccc(O)c(O)c3)c3csc(N)n3)[C@H]2SC1` (mixture of isomers) [Example 20, 7β-[DL-2-(3,4-dihydroxybenzoylamino)-2-(2-aminothiazol-4-yl)acetamido]cephalosporic acid], which MIC [1, 8] is on record?
A: 0.39 mg/L

Q: What about the MIC [2, 9] of the same molecule?
A: 6.25 mg/L

Q: What about the MIC [3, 10] of the same molecule?
A: 0.39 mg/L

Q: What about the MIC (Proteus vulgaris GN-76; [11]) of the same molecule?
A: 0.2 mg/L

Q: What about the MIC [4, 12] of the same molecule?
A: 0.05 mg/L

Q: What about the MIC [5, 13] of the same molecule?
A: 0.05 mg/L

Q: What about the MIC [6, 14] of the same molecule?
A: 0.1 mg/L

Q: And the MIC [7, 15]?
A: 0.2 mg/L

Q: How did the MIC ([1]; Staphylococcus aureus, 209PJC1, read-out: Minimum inhibitory concentration) turn out when `CO[C@@]1(NC(=O)CSCC#N)C(=O)N2C(C(=O)O)=C(CSc3nnnn3C)CS[C@@H]21` [Cefmetazole, reference compound] was run?
A: 0.39 mg/L (≈ 0.827 µM)

Q: What about the MIC ([2]; Serratia marcescens, NO.162, read-out: Minimum inhibitory concentration) of the same molecule?
A: > 50 mg/L

Q: And the MIC ([3]; Escherichia coli, NIHJJC2, read-out: Minimum inhibitory concentration)?
A: 0.78 mg/L (≈ 1.65 µM)

Q: What about the MIC (Proteus vulgaris GN-76; Proteus vulgaris, GN76, read-out: Minimum inhibitory concentration) of the same molecule?
A: 3.12 mg/L (≈ 6.62 µM)

Q: What about the MIC ([4]; Pseudomonas aeruginosa, Y1, read-out: Minimum inhibitory concentration) of the same molecule?
A: 3200 mg/L (≈ 6790 µM)

Q: And the MIC ([5]; Klebsiella pneumoniae, NO.42, read-out: Minimum inhibitory concentration)?
A: 1.56 mg/L (≈ 3.31 µM)

Q: And the MIC ([6]; Pseudomonas aeruginosa, E2, read-out: Minimum inhibitory concentration)?
A: 3200 mg/L (≈ 6790 µM)

Q: And the MIC ([7]; Pseudomonas aeruginosa, K13, read-out: Minimum inhibitory concentration)?
A: 3200 mg/L (≈ 6790 µM)

Q: Which MIC [1, 8] does the source give for `CC(=O)OCC1=C(C(=O)O)N2C(=O)[C@@H](NC(=O)C(NC(=O)c3ccccc3OC(C)=O)c3csc(N)n3)[C@H]2SC1` (mixture of isomers) [Example 15, 7β-[DL-2-(2-acetoxybenzoylamino)-2-(2-aminothiazol-4-yl)acetamido]cephalosporic acid] here?
A: 0.39 mg/L

Q: What about the MIC [2, 9] of the same molecule?
A: 200 mg/L

Q: What about the MIC [3, 10] of the same molecule?
A: 1.56 mg/L

Q: What about the MIC (Proteus vulgaris GN-76; [11]) of the same molecule?
A: 6.25 mg/L

Q: What about the MIC [4, 12] of the same molecule?
A: 50 mg/L

Q: And the MIC [5, 13]?
A: 6.25 mg/L

Q: What about the MIC [6, 14] of the same molecule?
A: 25 mg/L

Q: What about the MIC [7, 15] of the same molecule?
A: 25 mg/L

Q: Which MIC [1, 8] does the source give for `CCOC(=O)Oc1ccc(C(=O)NC(C(=O)N[C@@H]2C(=O)N3C(C(=O)O)=C(COC(C)=O)CS[C@H]23)c2csc(N)n2)cc1OC(=O)OCC` (mixture of isomers) [Example 19, 7β-[DL-2-(3,4-diethoxycarbonyloxy-benzoylamino)-2-(2-aminothiazol-4-yl)acetamido]-cephalosporic acid] here?
A: 0.39 mg/L

Q: What about the MIC [2, 9] of the same molecule?
A: 6.25 mg/L

Q: What about the MIC [3, 10] of the same molecule?
A: 0.39 mg/L

Q: What about the MIC (Proteus vulgaris GN-76; [11]) of the same molecule?
A: 0.39 mg/L

Q: What about the MIC [4, 12] of the same molecule?
A: 0.05 mg/L

Q: And the MIC [5, 13]?
A: 0.05 mg/L

Q: What about the MIC [6, 14] of the same molecule?
A: 0.2 mg/L

Q: What about the MIC [7, 15] of the same molecule?
A: 0.2 mg/L

Q: `CO[C@@]1(NC(=O)C(NC(=O)c2cc(OC(C)=O)c(OC(C)=O)c(OC(C)=O)c2)c2csc(N)n2)C(=O)N2C(C(=O)O)=C(CSc3nnnn3C)CS[C@@H]21` (mixture of isomers) [Example 11, 7α-methoxy-7β-[DL-2-(3,4,5-triacetoxy-benzoylamino)-2-(2-aminothiazol-4-yl)acetamido]-3-(1-methyl-lH-tetrazol-5-yl-thiomethyl)-3-cephem-4-carboxylic acid] was tested. Which MIC [1, 8] did it give?
A: 6.25 mg/L

Q: What about the MIC [2, 9] of the same molecule?
A: 6.25 mg/L

Q: What about the MIC [3, 10] of the same molecule?
A: 6.25 mg/L

Q: And the MIC (Proteus vulgaris GN-76; [11])?
A: 3.12 mg/L

Q: What about the MIC [4, 12] of the same molecule?
A: 0.78 mg/L

Q: And the MIC [5, 13]?
A: 0.39 mg/L

Q: What about the MIC [6, 14] of the same molecule?
A: 0.39 mg/L

Q: What about the MIC [7, 15] of the same molecule?
A: 0.78 mg/L

Q: With `CO[C@@]1(NC(=O)C(NC(=O)c2ccc(O)c(O)c2)c2csc(N)n2)C(=O)N2C(C(=O)O)=C(COC(C)=O)CS[C@@H]21` (mixture of isomers) [Example 9, 7α-methoxy-7β-[DL-2-(3,4-dihydroxy-benzoylamino)-2-(2-aminothiazol-4-yl)acetamidolcephalosporic acid] as the molecule, how does the MIC [1, 8] read?
A: 1.56 mg/L

Q: What about the MIC [2, 9] of the same molecule?
A: 3.12 mg/L

Q: And the MIC [3, 10]?
A: 12.5 mg/L

Q: What about the MIC (Proteus vulgaris GN-76; [11]) of the same molecule?
A: 3.12 mg/L

Q: What about the MIC [4, 12] of the same molecule?
A: 0.39 mg/L

Q: What about the MIC [5, 13] of the same molecule?
A: 0.39 mg/L

Q: What about the MIC [6, 14] of the same molecule?
A: 0.39 mg/L

Q: What about the MIC [7, 15] of the same molecule?
A: 0.78 mg/L
